According to US7998978B2 (Pfizer Inc., priority 2006, dated 2011):

molecular target: T1, JNK1α1 (Homo sapiens, UniProt P45983); assay: Coupled spectrophotometric (PK/LDH) JNK1α1 assay: % inhibition and Ki determination; type: biochemical; conditions: @1 uM; read-out: % Inhibition JNK-1
T1 construct: catalytic domain containing amino acids 1-364 and N-terminal hexahistidine tag; hexahistidine (His6) (N); made in house; host or cells: E. coli BL21 (DE3)
How it was run: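 Initial rates were taken from the absorbance decrease at 340 nm at 30° C. Ki was fitted with a tight-binding model over 11 concentrations (top 100 μM); single-point inhibition was tested at 1 or 10 μM.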

T1 sequence (P45983 1-364): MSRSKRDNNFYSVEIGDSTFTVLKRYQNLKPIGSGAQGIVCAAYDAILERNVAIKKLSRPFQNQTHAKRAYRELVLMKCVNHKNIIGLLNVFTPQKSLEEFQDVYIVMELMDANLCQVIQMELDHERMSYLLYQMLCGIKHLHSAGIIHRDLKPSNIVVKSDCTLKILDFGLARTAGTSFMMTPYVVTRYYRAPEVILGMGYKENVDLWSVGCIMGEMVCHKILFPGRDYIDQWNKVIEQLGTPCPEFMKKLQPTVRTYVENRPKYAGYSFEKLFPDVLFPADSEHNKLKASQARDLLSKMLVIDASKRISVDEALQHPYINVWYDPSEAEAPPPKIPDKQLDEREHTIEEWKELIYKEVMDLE

Row | inhibition at 1 µM | SMILES
1 | 24% | O[C@H]1CC[C@H](Nc2ncc3cccc(OCCN4CCOCC4)c3n2)CC1 [Example 250, trans-4-{[8-(2-morpholin-4-ylethoxy)quinazolin-2-yl]amino}cyclohexanol]
2 | 19% | CN(C)C(C)(C)COc1cccc2cnc(N[C@H]3CC[C@H](O)CC3)nc12 [Example 251, trans-4-({8-[2-(dimethylamino)-2-methylpropoxy]quinazolin-2-yl}amino)cyclohexanol]
3 | 17% | CN1CCC(Oc2cccc3cnc(N[C@H]4CC[C@H](O)CC4)nc23)CC1 [Example 254, trans-4-({8-[(1-methylpiperidin-4-yl)oxy]quinazolin-2-yl}amino)cyclohexanol]
4 | 12% | O[C@H]1CC[C@H](Nc2ncc3cccc(OCCN4CCCCC4)c3n2)CC1 [Example 255, trans-4-{[8-(2-piperidin-1-ylethoxy)quinazolin-2-yl]amino}cyclohexanol]
5 | 29% | COCCOc1cccc2cnc(N[C@H]3CC[C@H](O)CC3)nc12 [Example 256, trans-4-{[8-(2-methoxyethoxy)quinazolin-2-yl]amino}cyclohexanol]

Row | SMILES | inhibition at 1 µM
6 | CC(C)(C)OCCOc1cccc2cnc(N[C@H]3CC[C@H](O)CC3)nc12 [Example 258, trans-4-{[8-(2-tert-butoxyethoxy)quinazolin-2-yl]amino}cyclohexanol] | 30%

same assay, conditions: @10 uM; read-out: % Inhibition JNK-1

Row | inhibition at 10 µM | SMILES
7 | 17% | c1cc(CNc2cc3cc(-c4cn[nH]c4)ccc3cn2)[nH]n1 [Example 229, 6-(1H-pyrazol-4-yl)-N-(1H-pyrazol-5-ylmethyl)isoquinolin-3-amine]
8 | 43% | Cn1ccnc1-c1ccc(CNc2cc3cc(-c4cn[nH]c4)ccc3cn2)cc1 [Example 230, N-[4-(1-methyl-1H-imidazol-2-yl)benzyl]-6-(1H-pyrazol-4-yl)isoquinolin-3-amine]
9 | 43% | COc1ccc(CNc2cc3cc(-c4cn[nH]c4)ccc3cn2)cn1 [Example 231, N-[(6-methoxypyridin-3-yl)methyl]-6-(1H-pyrazol-4-yl)isoquinolin-3-amine]
10 | 46% | COc1ccccc1-c1ncc(CNc2cc3cc(-c4cn[nH]c4)ccc3cn2)cn1 [Example 232, N-{[2-(2-methoxyphenyl)pyrimidin-5-yl]methyl}-6-(1H-pyrazol-4-yl)isoquinolin-3-amine]
11 | 46% | c1ccc(Cn2cccn2)c(CNc2cc3cc(-c4cn[nH]c4)ccc3cn2)c1 [Example 233, 6-(1H-pyrazol-4-yl)-N-[2-(1H-pyrazol-1-ylmethyl)benzyl]isoquinolin-3-amine]
12 | 19% | CC(C)Oc1ccc(CNc2cc3cc(-c4cn[nH]c4)ccc3cn2)cc1CO [Example 234, [2-isopropoxy-5-({[6-(1H-pyrazol-4-yl)isoquinolin-3-yl]amino}methyl)phenyl]methanol]
13 | 15% | c1ncc(-c2ccc(CNc3cc4cc(-c5cn[nH]c5)ccc4cn3)cc2)cn1 [Example 235, 6-(1H-pyrazol-4-yl)-N-(4-pyrimidin-5-ylbenzyl)isoquinolin-3-amine]
14 | 49% | COc1ccc(F)c(CNc2cc3cc(-c4cn[nH]c4)ccc3cn2)c1 [Example 236, N-(2-fluoro-5-methoxybenzyl)-6-(1H-pyrazol-4-yl)isoquinolin-3-amine]
15 | 41% | CS(=O)(=O)Nc1ccc(CNc2cc3cc(-c4cn[nH]c4)ccc3cn2)cc1 [Example 237, N-[4-({[6-(1H-pyrazol-4-yl)isoquinolin-3-yl]amino}methyl)phenyl]methanesulfon-amide]
16 | 46% | N#Cc1cccc(CNc2cc3cc(-c4cn[nH]c4)ccc3cn2)c1 [Example 238, 3-({[6-(1H-pyrazol-4-yl)isoquinolin-3-yl]amino}methyl)benzonitrile]
17 | 59% | CN1CCCCC1COc1cccc2cnc(N[C@H]3CC[C@H](O)CC3)nc12 (stereo partly drawn) [Example 252, trans-4-({8-[(1-methylpiperidin-2-yl)methoxy]quinazolin-2-yl}amino)cyclohexanol]
18 | 38% | CN1CCCC(COc2cccc3cnc(N[C@H]4CC[C@H](O)CC4)nc23)C1 (stereo partly drawn) [Example 253, trans-4-({8-[(1-methylpiperidin-3-yl)methoxy]quinazolin-2-yl}amino)cyclohexanol]
19 | 62% | CN1CCC[C@H]1COc1cccc2cnc(N[C@H]3CC[C@H](O)CC3)nc12 [Example 257, trans-4-[(8-{[(2S)-1-methylpyrrolidin-2-yl]methoxy}quinazolin-2-yl)amino]cyclohexanol]
20 | 65% | CCN1CCC(Oc2cccc3cnc(N[C@H]4CC[C@H](O)CC4)nc23)C1 (stereo partly drawn) [Example 259, trans-4-({8-[(1-ethylpyrrolidin-3-yl)oxy]quinazolin-2-yl}amino)cyclohexanol]

same assay, conditions: JNK-1

Row | Ki | SMILES
21 | 775 nM | CC(=O)NC1CCC(Nc2cc3cc(-c4cn[nH]c4)ccc3cn2)CC1 (stereo not shown) [Example 217, N-(4-{[6-(1H-pyrazol-4-yl)isoquinolin-3-yl]amino}cyclohexyl)acetamide]
22 | 843 nM | c1cc2cnc(NC3CCOCC3)cc2cc1-c1cn[nH]c1 [Example 218, 6-(1H-pyrazol-4-yl)-N-(tetrahydro-2H-pyran-4-yl)isoquinolin-3-amine]
23 | 1160 nM | COc1cc2c(cc1CNc1cc3cc(-c4cn[nH]c4)ccc3cn1)N(C)C(=O)CC2 [Example 219, 6-methoxy-1-methyl-7-({[6-(1H-pyrazol-4-yl)isoquinolin-3-yl]amino}methyl)-3,4-dihydroquinolin-2(1H)-one]
24 | 1930 nM | c1ccc2ncc(CNc3cc4cc(-c5cn[nH]c5)ccc4cn3)cc2c1 [Example 220, 6-(1H-pyrazol-4-yl)-N-(quinolin-3-ylmethyl)isoquinolin-3-amine]
25 | 2220 nM | c1cnc2ccc(CNc3cc4cc(-c5cn[nH]c5)ccc4cn3)cc2c1 [Example 221, 6-(1H-pyrazol-4-yl)-N-(quinolin-6-ylmethyl)isoquinolin-3-amine]
26 | 2950 nM | c1ccc2nc(CNc3cc4cc(-c5cn[nH]c5)ccc4cn3)cnc2c1 [Example 222, 6-(1H-pyrazol-4-yl)-N-(quinoxalin-2-ylmethyl)isoquinolin-3-amine]
27 | 3280 nM | c1cc(CNc2cc3cc(-c4cn[nH]c4)ccc3cn2)cc(-c2cncnc2)c1 [Example 223, 6-(1H-pyrazol-4-yl)-N-(3-pyrimidin-5-ylbenzyl)isoquinolin-3-amine]
28 | 3370 nM | c1cc(CNc2cc3cc(-c4cn[nH]c4)ccc3cn2)cc(-n2cccn2)c1 [Example 224, 6-(1H-pyrazol-4-yl)-N-[3-(1H-pyrazol-1-yl)benzyl]isoquinolin-3-amine]
29 | 5160 nM | c1ccc(-c2nc(CNc3cc4cc(-c5cn[nH]c5)ccc4cn3)c[nH]2)cc1 [Example 225, N-[(2-phenyl-1H-imidazol-4-yl)methyl]-6-(1H-pyrazol-4-yl)isoquinolin-3-amine]
30 | 5270 nM | N#Cc1cc(CNc2cc3cc(-c4cn[nH]c4)ccc3cn2)ccc1F [Example 226, 2-fiuoro-5-({[6-(1H-pyrazol-4-yl)isoquinolin-3-yl]amino}methyl)benzonitrile]
31 | 6620 nM | Cc1cc(CNc2cc3cc(-c4cn[nH]c4)ccc3cn2)ccn1 [Example 227, N-[(2-methylpyridin-4-yl)methyl]-6-(1H-pyrazol-4-yl)isoquinolin-3-amine]
32 | 11500 nM | CCN(CC)CCN1CCC(Nc2cc3cc(-c4cn[nH]c4)ccc3cn2)CCC1=O (stereo not shown) [Example 228, 1-[2-(diethylamino)ethyl]-5-{[6-(1H-pyrazol-4-yl)isoquinolin-3-yl]amino}azepan-2-one]
33 | 67 nM | O[C@H]1CC[C@H](Nc2ncc3cccc(OC4CCC(F)(F)CC4)c3n2)CC1 [Example 239, trans-4-({8-[(4,4-difluorocyclohexyl)oxy]quinazolin-2-yl}amino)cyclohexanol]
34 | 79 nM | O[C@H]1CC[C@H](Nc2ncc3cccc(O[C@H]4CCCN(Cc5ccccn5)C4)c3n2)CC1 [Example 240, trans-4-[(8-{[1-(pyridin-2-ylmethyl)piperidin-3-yl]oxy}quinazolin-2-yl)amino]cyclohexanol]
35 | 112 nM | O[C@H]1CC[C@H](Nc2ncc3cccc(OC4CCC4)c3n2)CC1 [Example 242, trans-4-{[8-(cyclobutyloxy)quinazolin-2-yl]amino}cyclohexanol]
36 | 233 nM | O[C@H]1CC[C@H](Nc2ncc3cccc(OCC4CCCCO4)c3n2)CC1 (stereo partly drawn) [Example 243, trans-4-{[8-(tetrahydro-2H-pyran-2-ylmethoxy)quinazolin-2-yl]amino}cyclohexanol]
37 | 234 nM | O[C@H]1CC[C@H](Nc2ncc3cccc(OCC(F)(F)F)c3n2)CC1 [Example 244, trans-4-{[8-(2,2,2-trifluoroethoxy)quinazolin-2-yl]amino}cyclohexanol]
38 | 239 nM | O[C@H]1CC[C@H](Nc2ncc3cccc(OCCc4cn[nH]c4)c3n2)CC1 [Example 245, trans-4-({8-[2-(1H-pyrazol-4-yl)ethoxy]quinazolin-2-yl}amino)cyclohexanol]
39 | 257 nM | CCC1(COc2cccc3cnc(N[C@H]4CC[C@H](O)CC4)nc23)COC1 [Example 246, trans-4-({8-[(3-ethyloxetan-3-yl)methoxy]quinazolin-2-yl}amino)cyclohexanol]
40 | 274 nM | O[C@H]1CC[C@H](Nc2ncc3cccc(OC4CCN(c5ccncn5)CC4)c3n2)CC1 [Example 247, trans-4-({8-[(1-pyrimidin-4-ylpiperidin-4-yl)oxy]quinazolin-2-yl}amino)cyclohexanol]
41 | 303 nM | O[C@H]1CC[C@H](Nc2ncc3cccc(OCc4ccccn4)c3n2)CC1 [Example 248, trans-4-{[8-(pyridin-2-ylmethoxy)quinazolin-2-yl]amino}cyclohexanol]
42 | 323 nM | O[C@H]1CC[C@H](Nc2ncc3cccc(OCC4CCOC4)c3n2)CC1 (stereo partly drawn) [Example 249, trans-4-{[8-(tetrahydrofuran-3-ylmethoxy)quinazolin-2-yl]amino}cyclohexanol]

Row | SMILES | Ki
43 | COC(C)(C)CCOc1cccc2cnc(N[C@H]3CC[C@H](O)CC3)nc12 [Example 241, trans-4-{[8-(3-methoxy-3-methylbutoxy)quinazolin-2-yl]amino}cyclohexanol] | 98 nM
